The values that follow come from publication doi:10.1101/2024.12.23.630153v1 (biorxiv, 2024).

The IC50 is the concentration that gives 50% inhibition. What is called Ki is a measure of affinity in units of concentration, obtained from inhibition or displacement. High values mean a looser hold on the target, low ones a stronger hold on the target.

Some results are limits rather than exact numbers.

In the first assay the target is T1, OXA-57 (Burkholderia pseudomallei, UniProt Q6ZZZ2). In words: biochemical.
T1 sequence (Q6ZZZ2 24-269 limits assumed): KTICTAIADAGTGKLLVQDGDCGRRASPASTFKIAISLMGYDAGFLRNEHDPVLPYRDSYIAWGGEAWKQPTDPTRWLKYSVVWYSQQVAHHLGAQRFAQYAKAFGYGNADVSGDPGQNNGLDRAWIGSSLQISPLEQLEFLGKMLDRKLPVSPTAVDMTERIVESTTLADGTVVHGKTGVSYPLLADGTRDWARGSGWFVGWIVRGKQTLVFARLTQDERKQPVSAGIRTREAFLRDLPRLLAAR
Conditions: not given
In turn, `CC(C)(O/N=C(\C(=O)N[C@@H]1C(=O)N2C(C(=O)[O-])=C(C[n+]3ccccc3)CS[C@H]12)c1csc(N)n1)C(=O)O` [Ceftazidime] came in with an IC50 of over 3980 µM.

`CO/N=C(\C(=O)N[C@@H]1C(=O)N2C(C(=O)O)=C(COC(C)=O)CS[C@H]12)c1csc(N)n1` [Cefotaxime]: the IC50 is over 3980 µM.

`O=C(O)C[C@@H]1CC[C@H](NC(=O)Cc2cccs2)B(O)O1` [Vaborbactam] had an IC50 of over 3980 µM.

Regarding `C[C@H]1[C@H](NC(=O)/C(=N\OC(C)(C)C(=O)O)c2csc(N)n2)C(=O)N1S(=O)(=O)O` [Aztreonam], the IC50 was over 3980 µM.

`O=C(O)[C@H]1/C(=C/CO)O[C@@H]2CC(=O)N21` [Clavulanate] displayed a half-inhibitory concentration (IC50) of 9.4 µM.

The target of another assay is T1, OXA-57. In words: biochemical. As to conditions: pIC50.
As to `O=C(O)[C@H]1/C(=C/CO)O[C@@H]2CC(=O)N21` [Clavulanate], the concentration for half-maximal inhibition (IC50) is 12.6 µM. This counts as double-digit micromolar.

The next assay concerns the target T1, OXA-57.
Experiment: not given
Conditions: not given
As for `CC(=O)OCC1=C(C(=O)O)N2C(=O)[C@@H](NC(=O)Cc3cccs3)[C@H]2SC1` [Cephalothin], the Ki was 405 ± 97 µM.

Consider `C[C@@H](O)[C@H]1C(=O)N2C(C(=O)O)=C(S[C@@H]3CN[C@H](C(=O)N(C)C)C3)[C@H](C)[C@H]12` [Meropenem], for which the Ki was 646 ± 355 µM.

Consider `C[C@@H](O)[C@H]1C(=O)N2C(C(=O)O)=C(SCCN=CN)C[C@H]12` [Imipenem], for which the inhibition constant Ki turned out to be 265 ± 79 µM.
